Several values for one entry are separate records, joined by “and”; a condition that tells them apart may be missing. Equal entries are not always repeated. Entries after “also recorded” stand apart in the source; their conditions may differ. Structures can show the parent of a compound that is named as a salt. Where two headings read alike, the source gives them in different places.
What was measured:
MTS assay in HepG2 cells = assay type: cell-based; settings: human, HepG2 hepatoma cells; at 50 µM, percentage of control (vehicle-treated cells); read-out: HepG2 Cell Viability (%)
Protocol: (§1) . After the indicated time, the MTS reagent was added directly to the cultured cells for 1 h, and then the absorbance at 490 nm was read. […] The results are presented in Table 2 and Figures S1 and S2 (Supplementary Materials).
(§2) The hepatoma cell line HepG2 (ATCC® HB-8065TM) and SH-SY5Y CRL-2266 neuroblastoma cell line were used to evaluate the toxicity of tested compounds. Tests were conducted as described previously. The CellTiter 96® Aqueous Non-Radioactive Cell Proliferation Assay was purchased from Promega (Madison, WI, USA). […]. […] Each experiment was performed twice, in triplicate.

HepG2 cells = assay: MTS assay in HepG2 cells; assay type: cell-based; settings: Homo sapiens, HepG2; MTS assay, 48 h of exposure
Protocol: as §1, §2

eeAChE = target: T1, eeAChE (Electrophorus electricus, UniProt O42275); assay: kinetic study of eeAChE inhibition (Lineweaver-Burk, Cornish-Bowden plots); assay type: biochemical; settings: substrate acetylthiocholine
T1 construct: purchased Sigma-Aldrich (Steinheim, Germany)
T1 sequence (O42275 24-633): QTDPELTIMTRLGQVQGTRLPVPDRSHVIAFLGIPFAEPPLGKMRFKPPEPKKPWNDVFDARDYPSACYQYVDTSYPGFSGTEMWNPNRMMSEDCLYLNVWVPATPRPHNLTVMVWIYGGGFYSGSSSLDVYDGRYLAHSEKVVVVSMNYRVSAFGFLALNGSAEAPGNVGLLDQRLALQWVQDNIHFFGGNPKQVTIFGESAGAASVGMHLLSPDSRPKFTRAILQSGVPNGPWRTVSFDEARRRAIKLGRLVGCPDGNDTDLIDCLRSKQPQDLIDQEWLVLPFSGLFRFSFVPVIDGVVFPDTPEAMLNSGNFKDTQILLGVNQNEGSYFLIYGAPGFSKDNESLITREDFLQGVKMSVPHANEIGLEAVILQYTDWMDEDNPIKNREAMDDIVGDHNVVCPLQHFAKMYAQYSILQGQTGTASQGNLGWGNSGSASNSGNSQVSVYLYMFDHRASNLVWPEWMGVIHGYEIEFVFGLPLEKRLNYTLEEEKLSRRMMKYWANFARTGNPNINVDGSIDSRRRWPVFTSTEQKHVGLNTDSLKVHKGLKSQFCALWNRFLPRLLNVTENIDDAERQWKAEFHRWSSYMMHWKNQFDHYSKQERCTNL
Protocol: […]. The Michaelis–Menten equation was used to calculate the maximum velocity (Vmax) and the Michaelis constant (Km).
(§3) The type of line intersection and the location of this intersection confirms the mixed type of inhibition.
(§4) Studies were performed with compounds 16 and 17 using a method as described previously. Vmax and Km values of the Michaelis–Menten kinetics were calculated by nonlinear regression from substrate–velocity curves. Lineweaver–Burk and Cornish–Bowden plots were calculated using linear regression in GraphPad Prism 9 software (GraphPad Software, San Diego, CA, USA). Each experiment was performed in triplicate.

[1] = target: T2, BuChE from equine serum (eqBuChE) (Equus caballus, UniProt P81908); assay: biochemical; settings: for IC50: three independent experiments, read-out: eqBuChE IC50 Mean ± SEM
T2 construct: BuChE from equine serum (eqBuChE); purchased Sigma-Aldrich (Steinheim, Germany); host or cells: equine serum
T2 sequence (P81908 whole entry): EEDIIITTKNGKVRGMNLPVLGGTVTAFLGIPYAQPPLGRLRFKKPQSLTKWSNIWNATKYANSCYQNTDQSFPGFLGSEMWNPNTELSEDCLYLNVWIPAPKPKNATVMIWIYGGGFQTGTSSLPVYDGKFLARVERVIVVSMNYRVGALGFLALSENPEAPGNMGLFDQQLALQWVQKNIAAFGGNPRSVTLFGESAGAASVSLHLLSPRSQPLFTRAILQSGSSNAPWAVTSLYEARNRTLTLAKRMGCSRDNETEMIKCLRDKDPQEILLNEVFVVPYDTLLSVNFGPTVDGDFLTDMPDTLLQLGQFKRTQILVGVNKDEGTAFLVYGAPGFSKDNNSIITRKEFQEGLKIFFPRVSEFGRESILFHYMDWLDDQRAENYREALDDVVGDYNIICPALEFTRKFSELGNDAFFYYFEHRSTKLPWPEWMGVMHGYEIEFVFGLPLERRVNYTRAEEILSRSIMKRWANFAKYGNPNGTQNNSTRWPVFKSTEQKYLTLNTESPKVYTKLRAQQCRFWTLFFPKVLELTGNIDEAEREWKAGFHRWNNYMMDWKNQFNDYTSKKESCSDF
Protocol: AChE from electrophorus electricus and BuChE from equine serum were purchased from Sigma-Aldrich (Steinheim, Germany). The whole procedure was performed as previously described, using a modified Ellman method in 96-well microplates. […] Initial screening was performed for compounds at a concentration of […]. The percentage of inhibition was calculated by comparison with a blank sample (100% enzyme activity). […] Each concentration was measured in triplicate. IC50 values were calculated using GrapPad Prism 9 software (GraphPad Software, San Diego, CA, USA). Data are expressed as mean ± SEM.

[2] = MTS assay, statements on both cell lines together; assay type: cell-based, human; settings: human, HepG2 hepatoma cells and SH-SY5Y neuroblastoma cells; HepG2 48 h, SH-SY5Y 24 h; up to 50 µM; read-out: cell viability at the highest doses tested
HepG2 and SH-SY5Y cells = assay: MTS assay, statements on both cell lines together; assay type: cell-based, human; settings: HepG2 or SH-SY5Y cells; up to 50 µM
hMAO B = target: T3, hMAO B (Homo sapiens, UniProt P27338); assay: fluorometric Amplex red MAO assay; assay type: biochemical; settings: at 1 µM; two independent experiments; read-out: hMAO B % inh
T3 construct: purchased Sigma-Aldrich (Steinheim, Germany)
T3 sequence (P27338 1-520): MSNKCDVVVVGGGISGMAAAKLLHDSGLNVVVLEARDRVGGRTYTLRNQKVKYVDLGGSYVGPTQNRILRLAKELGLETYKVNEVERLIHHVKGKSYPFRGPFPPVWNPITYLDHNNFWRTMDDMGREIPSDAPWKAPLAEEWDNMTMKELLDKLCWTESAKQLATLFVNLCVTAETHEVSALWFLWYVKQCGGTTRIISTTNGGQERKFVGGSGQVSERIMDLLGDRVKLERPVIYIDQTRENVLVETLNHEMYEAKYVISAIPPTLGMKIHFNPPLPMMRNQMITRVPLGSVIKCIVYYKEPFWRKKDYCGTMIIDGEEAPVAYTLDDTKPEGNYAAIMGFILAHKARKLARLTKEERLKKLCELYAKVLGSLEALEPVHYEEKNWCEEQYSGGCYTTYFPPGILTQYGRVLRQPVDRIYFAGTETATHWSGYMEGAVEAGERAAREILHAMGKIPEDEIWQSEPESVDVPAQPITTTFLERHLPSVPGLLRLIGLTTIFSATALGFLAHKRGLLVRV
Protocol: The ability to inhibit MAO B was estimated by a fluorescence assay, as previously described.
The enzyme was purchased from Sigma-Aldrich (Steinheim, Germany). Screening was carried out at a concentration of 1 micromolar. Inhibitor activity was measured in the presence of p-tyramine.
Data are expressed as mean values of two independent experiments.

[3] = target: T4, AChE from electrophorus electricus (eeAChE) (Electrophorus electricus, UniProt O42275); assay: modified Ellman colorimetric assay, eeAChE; assay type: biochemical; settings: for IC50: three independent experiments, read-out: eeAChE IC50 Mean ± SEM
T4 construct: purchased Sigma-Aldrich (Steinheim, Germany)
T4 sequence (O42275 24-633): as the sequence (O42275 24-633) above
Protocol: All compounds were tested at a concentration of 10 µM in a modified colorimetric method first described by Ellman et al. in the 1960s, using AChE from electrophorus electricus (eeAChE) and BuChE from equine serum (eqBuChE). […]. All results are collected in Table 1. […]. […] No correlation was observed between inhibitory activity and hH3R affinity. The most interesting compounds were among the azepane derivatives. […]. AChE from electrophorus electricus and BuChE from equine serum were purchased from Sigma-Aldrich (Steinheim, Germany). The whole procedure was performed as previously described, using a modified Ellman method in 96-well microplates. Absorbance was measured using an EnSpire multimode microplate reader (PerkinElmer, Waltham, MA, USA) at 412 nm. Initial screening was performed for compounds at a concentration of […]. The percentage of inhibition was calculated by comparison with a blank sample (100% enzyme activity). For compounds showing >70% inhibition of enzyme activity, IC50 values were determined, measuring absorbance at six different inhibitor concentrations. Each concentration was measured in triplicate. IC50 values were calculated using GrapPad Prism 9 software (GraphPad Software, San Diego, CA, USA). Data are expressed as mean ± SEM.

human H3 receptor (hH3R) = target: T5, human H3 receptor (hH3R) (Homo sapiens, UniProt Q9Y5N1); assay: [3H]-Nα-methylhistamine radioligand binding assay, HEK293 cell membranes expressing hH3R; settings: hH3R Ki Mean [CI 95%], HEK293 cells expressing human H3 receptor; at least three independent repetitions
T5 construct: expressed in transfected cells; host or cells: HEK293
T5 sequence (Q9Y5N1 whole entry): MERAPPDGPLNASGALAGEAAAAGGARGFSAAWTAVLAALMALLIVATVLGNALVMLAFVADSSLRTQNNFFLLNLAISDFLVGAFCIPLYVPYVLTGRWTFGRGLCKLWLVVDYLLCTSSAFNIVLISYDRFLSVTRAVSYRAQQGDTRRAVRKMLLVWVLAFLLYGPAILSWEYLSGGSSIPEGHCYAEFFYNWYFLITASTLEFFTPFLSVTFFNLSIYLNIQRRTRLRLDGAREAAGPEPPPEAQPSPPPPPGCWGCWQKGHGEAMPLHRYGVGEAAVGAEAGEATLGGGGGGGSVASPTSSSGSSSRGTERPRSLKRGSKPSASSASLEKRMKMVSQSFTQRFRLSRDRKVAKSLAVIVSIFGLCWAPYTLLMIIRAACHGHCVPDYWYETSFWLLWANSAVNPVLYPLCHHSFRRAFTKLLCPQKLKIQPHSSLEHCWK
Protocol: The affinity for hH3R was assessed in vitro in radioligand binding assays, using membrane preparations of HEK293 cells stably expressing hH3R, while [^3H]-N^α-methylhistamine was used as a radioligand. The exact procedure was described previously by Kottke et al.. Novel compounds were tested as oxalic acid salts. […]. The activity depended on all three variables, i.e., the presence of an amine group, the chain length (five or six carbons), and the type of substituent in the phenyl ring. With regard to the change in the amine moiety, it can be observed that, regardless of the length of the chain and the type of R substituent, the activity of the derivatives was arranged in the following order: 3-methylpiperidine ≥ piperidine ≥ azepane >> 4-metylpiperidine derivatives. Regarding the length of the carbon chain, compounds bearing the pentylene chain are characterized by a higher binding affinity to the receptor than hexylene derivatives (exception: 10). […]
H3R receptor affinity assays were performed in the radioligand competition assay. Human H3R was stably expressed in HEK293 cells. [^3H]-N^α-Methylhistamine (KD = 3.08 nM) was used as the radioligand. The compounds used in the experiments were dissolved in DMSO. The precise experiment was performed as previously described. Complete curves were obtained for at least seven approximate concentrations, in at least three independent experiments, performed at least in duplicate. Ki values were calculated using the Cheng–Prusoff equation. Results are presented as mean values with confidence intervals (CI) (95%).

[4] = MTS assay in SH-SY5Y cells; assay type: cell-based; settings: human, SH-SY5Y neuroblastoma cells; at 50 µM, percentage of control (vehicle-treated cells); read-out: SH-SY5Y Cell Viability (%)
Protocol: as §1, §2

SH-SY5Y cells = assay: MTS assay in SH-SY5Y cells; assay type: cell-based; settings: Homo sapiens, SH-SY5Y; MTS assay, 24 h of exposure
Protocol: as §1, §2

[5] = target: T2, BuChE from equine serum (eqBuChE); settings: cited from earlier work
[6] = target: T4, AChE from electrophorus electricus (eeAChE); settings: cited from earlier work
hH3R [7] = settings: cited from earlier work
eqBuChE = target: T6, eqBuChE (Equus caballus, UniProt P81908); assay: kinetic study of eqBuChE inhibition (Lineweaver-Burk, Cornish-Bowden plots); assay type: biochemical, equine; settings: substrate butyrylthiocholine
T6 construct: BuChE from equine serum (eqBuChE); purchased Sigma-Aldrich (Steinheim, Germany); host or cells: equine serum
T6 sequence (P81908 whole entry): as the sequence (P81908 whole entry) above
Protocol: The Michaelis–Menten equation was used to calculate the maximum velocity (Vmax) and the Michaelis constant (Km).
as §3, §4

hH3R [8] = settings: cited from earlier work; remark: listed apart in the source
[9] = test system: AChE extracted from mouse brains (mbAChE); design: method as in PMID 30822710; settings: cited from earlier work
mpBuChE = test system: mpBuChE; design: method as in PMID 30822710; settings: cited from earlier work

SMILES | viability at 48 h, 50 µM (MTS assay in HepG2 cells) | IC50 (HepG2 cells) | IC50 [1] | viability at 50 µM [2] | inhibition at 1 µM (hMAO B) | IC50 [3] | Ki (human H3 receptor (hH3R)) | viability at 24 h, 50 µM [4] | IC50 (SH-SY5Y cells) | IC50 [5] | IC50 [6] | Ki (hH3R [7]) | further results
CCC(=O)c1ccc(OCCCCCCN2CCCCCC2)cc1.O=C(O)C(=O)O [Compound 17, 1-(4-((6-(Azepan-1-yl)hexyl)oxy)phenyl)propan-1-one hydrogen oxalate] | 58 ± 3.54% | 60 µM | 2.86 ± 0.03 µM | > 50% | 5% | 1.06 ± 0.03 µM | < 0.05 µM and 0.042 µM | 70.3 ± 4.46% | 111 µM | – | – | – | type of eeAChE inhibition (eeAChE): non-competitive (mixed); also recorded: mixed; cell toxicity (HepG2 and SH-SY5Y cells): lack of cell toxicity
N#Cc1ccc(-c2ccc(OCCCN3CCCCCC3)cc2)cc1 [V] | – | – | – | – | – | – | – | – | – | 1.3 µM | 2.63 µM | 0.009 µM | –
O=C(c1ccccc1)c1ccc(OCCCCCN2CCCCCC2)cc1 [lead 2] | – | – | – | – | – | – | – | – | – | 0.68 µM | 4.63 µM | 0.04 µM | –
CCC(=O)c1ccc(OCCCCCN2CCCCCC2)cc1.O=C(O)C(=O)O [Compound 16, 1-(4-((5-(Azepan-1-yl)pentyl)oxy)phenyl)propan-1-one hydrogen oxalate] | 67.7 ± 1.14% | 92 µM | 0.55 ± 0.02 µM | > 50% | 6% | 3.6 ± 0.12 µM | < 0.05 µM and 0.03 µM | 90.3 ± 5.32% | 357 µM | – | – | – | cell toxicity (HepG2 and SH-SY5Y cells): lack of cell toxicity; type of eqBuChE inhibition (eqBuChE): mixed
C=CCN1CCN(CC2Cc3cc(C(C)(C)C)ccc3O2)CC1 (stereo not shown) [VI] | – | – | – | – | – | – | – | – | – | 13.2 µM | 19.1 µM | 0.016 µM | –
CN1CCN(CCCN(C)C(=O)c2cc3ccc(Cl)cc3[nH]2)CC1 [I] | – | – | – | – | – | – | – | – | – | 21.1 µM | 9.09 µM | – | EC50 (hH3R [8]): 0.73 µM
CC(=O)c1ccc(OCCCCCN2CCCC(C)C2)cc1 (stereo not shown) [Compound 6, 1-(4-((5-(3-Methylpiperidin-1-yl)pentyl)oxy)phenyl)ethan-1-one hydrogen oxalate] | 74.3 ± 5.58% | 120 µM | – | > 50% | 10% | 3.06 ± 0.1 µM | < 0.05 µM and 0.026 µM | 86.2 ± 2.2% | 149 µM | – | – | – | inhibition at 10 µM ([1]; at 10 µM, read-out: eqBuChE % inh): 14%
CCN(C)CCCCOc1ccc2c(=O)c(-c3ccc(OCCN4CCCCC4)cc3)coc2c1 [II] | – | – | – | – | – | – | – | – | – | – | – | – | IC50 [9]: 0.08 µM; IC50 (hH3R [8]): 0.27 µM; IC50 (mpBuChE): 2.89 µM
CCC(=O)c1ccc(OCCCCCN2CCC(C)CC2)cc1 [Compound 12, 1-(4-((5-(4-Methylpiperidin-1-yl)pentyl)oxy)phenyl)propan-1-one hydrogen oxalate] | 77.2 ± 4.14% | 149 µM | 1.29 ± 0.08 µM | > 50% | 0% | – | 0.057 µM | 90.7 ± 12.9% | 421 µM | – | – | – | inhibition at 10 µM ([3]; at 10 µM, read-out: eeAChE % inh): 58%
